According to patent US9902728B2, “Pyrrolo and pyrazolopyrimidines as ubiquitin-specific protease 7 inhibitors” (Forma Therapeutics, Inc., priority 2014, dated 2018):

biological target: T1, USP7 (Homo sapiens, UniProt Q93009); assay: USP7 Assay A (Ubitquin-Rhodamine 110 Assay); format: biochemical; settings: USP7 activity in USP7 assay A and B (table does not say which assay per compound); read-out: USP7_IC50
T1 construct: USP7, construct USP7 (208-1102) 6*His, Viva Biotech; 6xHis (C); purchased Viva Biotech
T1 sequence (Q93009 208-1102): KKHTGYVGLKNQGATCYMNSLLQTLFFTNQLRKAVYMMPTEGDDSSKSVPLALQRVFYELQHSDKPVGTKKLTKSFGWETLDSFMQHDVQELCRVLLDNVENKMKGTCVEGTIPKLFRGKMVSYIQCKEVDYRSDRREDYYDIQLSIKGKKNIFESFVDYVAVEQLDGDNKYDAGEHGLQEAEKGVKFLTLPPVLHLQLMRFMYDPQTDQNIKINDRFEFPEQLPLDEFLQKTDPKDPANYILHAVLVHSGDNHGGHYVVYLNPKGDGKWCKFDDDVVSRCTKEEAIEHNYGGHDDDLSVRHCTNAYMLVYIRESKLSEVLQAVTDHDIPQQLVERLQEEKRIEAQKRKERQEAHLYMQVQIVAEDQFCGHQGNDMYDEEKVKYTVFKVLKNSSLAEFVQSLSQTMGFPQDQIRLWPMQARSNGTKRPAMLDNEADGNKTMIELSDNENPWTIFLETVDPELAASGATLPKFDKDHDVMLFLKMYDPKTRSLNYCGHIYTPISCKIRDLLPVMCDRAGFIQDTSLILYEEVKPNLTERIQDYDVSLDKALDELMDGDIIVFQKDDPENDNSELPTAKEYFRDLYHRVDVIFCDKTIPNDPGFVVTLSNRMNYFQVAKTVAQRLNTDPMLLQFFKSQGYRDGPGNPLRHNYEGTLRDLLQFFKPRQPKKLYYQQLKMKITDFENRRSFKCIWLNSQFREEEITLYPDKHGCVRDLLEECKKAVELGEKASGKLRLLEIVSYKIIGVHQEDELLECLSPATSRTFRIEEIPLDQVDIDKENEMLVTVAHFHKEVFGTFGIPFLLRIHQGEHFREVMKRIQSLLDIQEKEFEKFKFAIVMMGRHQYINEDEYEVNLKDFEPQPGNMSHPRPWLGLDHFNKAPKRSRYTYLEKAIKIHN
Description: Each assay was performed in a final volume of 15 μL in assay buffer containing 20 mM Tris-HCl (pH 8.0, (1M Tris-HCl, pH 8.0 solution; Corning 46-031-CM)), 1 mM GSH (L-Glutathione reduced; Sigma #G4251), 0.03% BGG ([…], Sigma, #G7516-25G), and 0.01% Triton X-100 (Sigma, #T9284-10L). […] 5 μL of 2× enzyme was added to assay plates (pre-stamped with compound) preincubated with USP7 for 30 minutes and then 5 μL of 2×Ub-Rh110 was added to assay plates. […] Fluorescence was read on the Envision (Excitation at 485 nm and Emission at 535 nm; Perkin Elmer) or on the PheraSTAR (Excitation at 485 nm and Emission at 535 nm; BMG Labtech).
Data from USP7 Assays A and B were reported as percent inhibition (inh) compared with control wells based on the following equation: % inh=1−((FLU−AveLow)/(AveHigh−AveLow)) where FLU=measured Fluorescence (See Tables 6-10). AveLow=average Fluorescence of no enzyme control (n=16). AveHigh=average Fluorescence of DMSO control (n=16). […] Data is fitted using the Levenburg Marquardt algorithm.

SMILES	IC50
CN1CCC(Oc2ccc(C(=O)N3CCC(O)(Cn4cnc5c(cnn5-c5ccc(Cl)cc5)c4=O)CC3)cn2)C1 (centres unmarked) [Compound I-920]	1 to 10 µM
O=C(C1CCC(OC2CCOCC2)CC1)N1CCC(O)(Cn2cnc3c(cnn3-c3ccc(F)cc3)c2=O)CC1 (centres unmarked) [Compound I-926]	0.2 to 1 µM
O=C(c1cnn(C2CC2)c1)N1CCC(O)(Cn2cnc3c(cnn3-c3ccc(F)cc3)c2=O)CC1 [Compound I-726]	0.2 to 1 µM
O=C(c1cnn(C2CC2)c1)N1CCC(O)(Cn2cnc3c(cnn3-c3ccc(Cl)cc3)c2=O)CC1 [Compound I-1095]	0.2 to 1 µM
Cc1cc2c(=O)n(CC3(O)CCN(C(=O)c4cnc(C5CC5)o4)CC3)cnc2n1-c1ccc(F)cc1 [Compound I-850]	0.2 to 1 µM
Cc1ncc(C(=O)N2CCC(O)(Cn3cnc4c(ccn4-c4ccc(F)cc4)c3=O)CC2)o1 [Compound I-1077]	0.2 to 1 µM
O=C(c1ccc(-c2cnn3c2OCC3)cc1)N1CCC(O)(Cn2cnc3c(cnn3-c3ccc(F)cc3)c2=O)CC1 [Compound I-550]	0.2 to 1 µM
O=C(C1CCC(Oc2ccccn2)CC1)N1CCC(O)(Cn2cnc3c(cnn3-c3ccc(F)cc3)c2=O)CC1 (centres unmarked) [Compound I-544]	1 to 10 µM
O=C(C1CCC(Oc2cccc(F)n2)CC1)N1CCC(O)(Cn2cnc3c(cnn3-c3ccc(F)cc3)c2=O)CC1 (centres unmarked) [Compound I-739]	< 0.2 µM
O=C(C1CC1)N1CCC(O)(Cn2cnc3c(cnn3-c3ccc(N4CCC5(CC4)CC(CO)C5)cc3)c2=O)CC1 [Compound I-1741]	0.2 to 1 µM
CC1(C(=O)N2CCC(O)(Cn3cnc4c(cnn4-c4cccc(N5CC(C(C)(C)O)C5)c4)c3=O)CC2)CC1 [Compound I-1676]	< 0.2 µM
Cc1cnn(-c2ccc(-n3ncc4c(=O)n(CC5(O)CCN(C(=O)c6cnc(C7CC7)o6)CC5)cnc43)cc2)c1 [Compound I-779]	< 0.2 µM
Cc1ncc(C(=O)N2CCC(O)(Cn3cnc4c(cnn4-c4ccc(-n5cc(CO)cn5)cc4)c3=O)CC2)o1 [Compound I-1687]	< 0.2 µM
O=C(C1CC1)N1CCC(O)(Cn2cnc3c(cnn3-c3ccc(-n4cc(OCCO)cn4)cc3)c2=O)CC1 [Compound I-977]	1 to 10 µM
Cc1ccn(-c2ccc(-n3ncc4c(=O)n(CC5(O)CCN(C(=O)C6(C)CC6)CC5)cnc43)cc2)n1 [Compound I-1710]	0.2 to 1 µM
O=C(C[C@@H](n1cccn1)C(F)(F)F)N1CCC(O)(Cn2cnc3c(cnn3-c3ccc(F)cc3)c2=O)CC1 [Compound I-913]	1 to 10 µM
O=C(c1ccc(N2CCCN3CCCC3C2)cc1)N1CCC(O)(Cn2cnc3c(cnn3-c3ccc(F)cc3)c2=O)CC1 (centres unmarked) [Compound I-1683]	1 to 10 µM
Cc1cc(OC2CCC(C(=O)N3CCC(O)(Cn4cnc5c(cnn5-c5ccc(F)cc5)c4=O)CC3)CC2)no1 (centres unmarked) [Compound I-756]	0.2 to 1 µM

SMILES	IC50
CC1(C(=O)N2CCC(O)(Cn3cnc4c(cnn4-c4ccc(N5CC(N6CCOCC6)C5)cc4)c3=O)CC2)CC1 [Compound I-1636]	0.2 to 1 µM
CN1CCN(c2ccc(-n3ncc4c(=O)n(CC5(O)CCN(C(=O)CC(C(F)F)n6cccn6)CC5)cnc43)cc2)CC1 (centres unmarked) [Compound I-825]	< 0.2 µM
O=C(c1ccc(F)cc1)N1CCC(O)(Cn2cnc3c(cnn3-c3ccc(OCC4(F)CCOCC4)cc3)c2=O)CC1 [Compound I-693]	0.2 to 1 µM
CC1(C(=O)N2CCC(O)(Cn3cnc4c(cnn4-c4ccc(-n5cccn5)cc4)c3=O)CC2)CCC1 [Compound I-782]	< 0.2 µM
O=C(C1CCC(Nc2cccc(F)n2)CC1)N1CCC(O)(Cn2cnc3c(cnn3-c3ccc(F)cc3)c2=O)CC1 (centres unmarked) [Compound I-1023]	< 0.2 µM
O=C(C[C@H](C(F)F)n1ccc(F)n1)N1CCC(O)(Cn2cnc3c(cnn3-c3cccc(N4CC5CC5C4)c3)c2=O)CC1 (some centres unmarked) [Compound I-791]	0.2 to 1 µM
O=C(C[C@@H](C(F)F)n1cccn1)N1CCC(O)(Cn2cnc3c(cnn3-c3ccc(N4CCCCC4)cc3)c2=O)CC1 [Compound I-822]	0.2 to 1 µM
O=C(C[C@H](C(F)F)n1cccn1)N1CCC(O)(Cn2cnc3c(cnn3-c3ccc(CN4CCC4)cc3)c2=O)CC1 [Compound I-855]	< 0.2 µM
O=C(C[C@@H](C(F)F)n1ccc(F)n1)N1CCC(O)(Cn2cnc3c(cnn3-c3cccc(N4CCOCC4)c3)c2=O)CC1 [Compound I-789]	< 0.2 µM
Cn1cc(C(=O)N2CCC(O)(Cn3cnc4c(cnn4-c4ccc(F)cc4)c3=O)CC2)c(Cc2ccccc2)n1 [Compound I-1161]	< 0.2 µM
O=C(c1cnc(C2CC2)o1)N1CCC(O)(Cn2cnc3c(cnn3-c3ccc(N4CCC(F)(F)CC4)cc3)c2=O)CC1 [Compound I-699]	0.2 to 1 µM
CC1(COc2ccc(-n3ncc4c(=O)n(CC5(O)CCN(C(=O)C6(C)CCC6)CC5)cnc43)cc2)COC1 [Compound I-1136]	< 0.2 µM
O=C(C1CC1)N1CCC(O)(Cn2cnc3c(cnn3-c3ccc(-c4ccc(N5CC[C@H](O)C5)nc4)cc3)c2=O)CC1 [Compound I-686]	0.2 to 1 µM
O=C(C1CCC(Oc2cccc(N3CCC3)n2)CC1)N1CCC(O)(Cn2cnc3c(cnn3-c3ccc(F)cc3)c2=O)CC1 (centres unmarked) [Compound I-1018]	< 0.2 µM
Cc1ncn(-c2ccc(-n3ncc4c(=O)n(CC5(O)CCN(C(=O)c6ccc(F)cc6)CC5)cnc43)cc2)n1 [Compound I-673]	1 to 10 µM
CC1(COc2ccc(-n3ncc4c(=O)n(CC5(O)CCN(C(=O)c6ccc(F)cc6)CC5)cnc43)cc2)COC1 [Compound I-1756]	0.2 to 1 µM
O=C(c1ccc(F)cc1)N1CCC(O)(Cn2cnc3c(cnn3-c3ccc(-c4cnn(C5COC5)c4)cc3)c2=O)CC1 [Compound I-1615]	0.2 to 1 µM

same assay, conditions: USP7 assay A and B (table does not say which assay per compound); Ubiquitin-Rhodamine 110 substrate; read-out: USP7_IC50

SMILES	IC50
C[C@H](CC(=O)N1CCC(O)(Cn2cnc3c(cnn3C)c2=O)CC1)c1ccccc1 [Compound I-57]	0.2 to 1 µM

same assay, conditions: USP7 assay A and B (table does not say which assay per compound); read-out: USP7_IC50

SMILES	IC50
O=C(c1ccc(C2CC2)cc1)N1CCC(O)(Cn2cnc3c(cnn3-c3ccccc3)c2=O)CC1 [Compound I-156]	0.2 to 1 µM
CN(C(=O)c1ccc(C(=O)N2CCC(O)(Cn3cnc4c(cnn4C)c3=O)CC2)cc1)c1ccccc1 [Compound I-108]	1 to 10 µM
O=C(Nc1nccs1)c1ccc(-n2ncc3c(=O)n(CC4(O)CCN(C(=O)C5CC5)CC4)cnc32)cc1 [Compound I-1493]	1 to 10 µM
CN1CCN(c2ccc(C(=O)N3CCC(O)(Cn4cnc5c(cnn5-c5ccc(F)cc5)c4=O)CC3)cc2)CC1 [Compound I-606]	1 to 10 µM
O=C(C[C@@H](c1ccccc1)C(F)F)N1CCC(O)(Cn2cnc3c(cnn3-c3ccccc3)c2=O)CC1 [Compound I-1103]	< 0.2 µM
C[C@H](CC(=O)N1CCC(O)(Cn2cnc3c(cnn3-c3ccc(F)cc3)c2=O)CC1)n1cccn1 [Compound I-515]	1 to 10 µM
Cc1cc(C)c(-n2ncc3c(=O)n(CC4(O)CCN(C(=O)C5CC5)CC4)cnc32)c(C)c1 [Compound I-26]	> 10 µM
O=C(C1CC1)N1CCC(O)(Cn2cnc3c(cnn3-c3cccc(-c4cc(F)ccc4CO)c3)c2=O)CC1 [Compound I-403]	1 to 10 µM
CN(C)C(=O)N1CCC(O)(Cn2cnc3c(cnn3-c3cccc(N4C[C@@H](O)[C@H](F)C4)c3)c2=O)CC1 [Compound I-974]	1 to 10 µM
C[C@@H](CC(=O)N1CCC(O)(Cn2cnc3c(cnn3-c3ccc(F)cc3)c2=O)CC1)n1cccn1 [Compound I-514]	0.2 to 1 µM
Cc1ccc(-n2ncc3c(=O)n(CC4(O)CCN(C(=O)C[C@@H](C(F)F)n5cccn5)CC4)cnc32)cc1 [Compound I-1061]	1 to 10 µM
CC1(C(=O)N2CCC(O)(Cn3cnc4c(cnn4-c4ccc(OC5CC(F)(F)C5)cc4)c3=O)CC2)CC1 [Compound I-1801]	< 0.2 µM
CN1CCCC(CNc2ccc(-n3ncc4c(=O)n(CC5(O)CCN(C(=O)C6CC6)CC5)cnc43)cc2)C1 (centres unmarked) [Compound I-1151]	0.2 to 1 µM
CC(C)CN(C)Cc1cccc(-n2ncc3c(=O)n(CC4(O)CCN(C(=O)C5CC5)CC4)cnc32)c1 [Compound I-452]	1 to 10 µM
O=C(c1cc2n(n1)CCCO2)N1CCC(O)(Cn2cnc3c(cnn3-c3ccc(Cl)cc3)c2=O)CC1 [Compound I-1569]	1 to 10 µM
CN1CCN(c2ccc(-c3ccc(-n4ncc5c(=O)n(CC6(O)CCN(C(=O)C7CC7)CC6)cnc54)cc3)cc2)CC1 [Compound I-844]	< 0.2 µM
O=C(c1ccc(F)cc1)N1CCC(O)(Cn2cnc3c(cnn3-c3ccc(OCC4CCOCC4)cc3)c2=O)CC1 [Compound I-1324]	1 to 10 µM
COc1cc(OC)cc(C(=O)N2CCC(O)(Cn3cnc4c(cnn4-c4ccccc4)c3=O)CC2)c1 [Compound I-203]	> 10 µM
O=C(c1ccc2c(Cl)ccnc2c1)N1CCC(O)(Cn2cnc3c(cnn3-c3ccccc3)c2=O)CC1 [Compound I-282]	1 to 10 µM
Cc1ccccc1S(=O)(=O)Nc1ccc(-n2ncc3c(=O)n(CC4(O)CCN(C(=O)C5CC5)CC4)cnc32)cc1 [Compound I-1425]	1 to 10 µM
O=C(c1ccc(F)cc1)N1CCC(O)(Cn2cnc3c(cnn3-c3ccc(C4(O)CC4)cc3)c2=O)CC1 [Compound I-713]	1 to 10 µM
Nc1ccc(-n2ncc3c(=O)n(CC4(O)CCN(C(=O)C5CC5)CC4)cnc32)cc1 [Compound I-965]	1 to 10 µM
CNC1CCN(c2ccc(-c3ccc(-n4ncc5c(=O)n(CC6(O)CCN(C(=O)C7CC7)CC6)cnc54)cc3)cc2)C1 (centres unmarked) [Compound I-688]	0.2 to 1 µM
